The source of these data is patent US20230210770A1, “TOPICAL OPHTHALMOLOGICAL COMPOSITIONS AND METHODS FOR TREATING ABNORMAL ANGIOGENESIS” (ADS THERAPEUTICS LLC, priority 2020, published 2023).

For data set [1] the following is noted: cited from earlier work.
Data set [2] is described as follows: Solubility in water (reported). The data set is classed as physicochemical.
Data set [3] concerns rabbit glaucoma filtration surgery model. Briefly: Rabbit glaucoma filtration surgery model. It counts as in vivo, New Zealand White rabbits. Conditions: vs vehicle.
Data set [4] in a line: Solubility of nintedanib in a representative water-based emulsion system. The data set is classed as physicochemical. The note with it: for solubility: water-based emulsion, aqueous with cosolvent or surfactant or cyclodextrin, Nintedanib solubility.
The nature of data set [5]: Solubility of nintedanib in various solubilizers. The data set is classed as physicochemical. On the procedure: Tare 1.5 mL Eppendorf tube 2. […] Add solubilizer and record weight 4. Add water pH 5 (except F3 & F4) and record weight 5. Beadbeater mix for 120 seconds 6. Place on rotating mixer for overnight at ambient temperature 7. Filter through 0.2 μm SPIN-X centrifuge filter 8. Measure pH of filtrate 9. Assay filtrate using CBT-001 standard solution [table]

Data set [6] is described as follows: Regorafenib concentration and degradation in F6H8 suspension by HPLC. The data set is classed as physicochemical. On the procedure:
The Suspension was homogenized by stirring at room temperature for 15 minutes. […] The observed fluctuation was most likely due to inhomogeneity of the sample after manual shaking of the suspension.
[…] were injected into an Agilent 1100 HPLC system (Agilent, Waldbronn, Germany), and samples were run on a heated (40° C.) Symmetry C18 column (150×4.6 mm-3.5 um particle size, Waters, Eschborn, Germany) applying a flow rate of 1 ml/min. The mobile phase consisted of a mixture of potassium phosphate buffer pH 2.4 (A) and acetonitrile/ethanol (6/4) (B). The following gradient was applied: minute 0: A, 60%/B, 40%: minute 12: A, 20%/B, 80%: minute 16: A, 20%/B, 80%: minute 16.5: A, 60%/B, 40%: minute 20: A, 60%/B, 40%.

[7] abbreviates: water-based emulsion of castor oil, polysorbate 80 and polyoxyl-35 castor oil.

The structures appear in SMILES notation. ≈ marks a conversion by molar mass, not a printed value.

In the case of `CNC(=O)c1ccccc1Sc1ccc2c(/C=C/c3ccccn3)n[nH]c2c1` [Axitinib, axitinib], in data set [1] (water at neutral pH), the solubility in water was 200 µg/mL (≈ 0.517 mM).

For the compound `COC(=O)c1ccc2c(c1)NC(=O)/C2=C(\Nc1ccc(N(C)C(=O)CN2CCN(C)CC2)cc1)c1ccccc1` [Nintedanib, nintedanib], in data set [1] (water), the “reported solubility in water” value is recorded as “less than 0.01 mg/mL”. Besides, the “reported solubility in water, as percent” value in data set [2] is recorded as < 0.001%. In addition, the fibroblast density entry is reported as “trend of reduction not statistically significant” in data set [3] (group 3: 0.3% emulsion BID minus Day 7-Day 30, rabbit) and “significant reduction” in data set [3] (group 4: 0.3% emulsion BID Day 1-Day 30, rabbit). In addition, in data set [4] (setting [7]), the “nintedanib dissolved by the emulsion system” value was 3 to 5 mg/mL. The “ophthalmic emulsion concentration of nintedanib” value in data set [4] (setting [7]) is on record as 0.3%-0.5. Besides, the solubility came out at 5000 µg/mL (≈ 9.27 mM) in data set [4] (emulsion F70 lot 1: castor oil 1, polysorbate 80 1, polyoxyl-35 castor oil 2, water 95) and 3400 µg/mL (≈ 6.3 mM) in data set [4] (emulsion F70 lot 2: castor oil 1, polysorbate 80 1, polyoxyl-35 castor oil 2, water 95). For the same compound, the Nintedanib solubility in data set [5] (solubilizer BZA, filtrate pH 5.6) is 0.01 mg/g; in data set [5] (solubilizer BZK, filtrate pH 5.6) it was 0.20 mg/g; in data set [5] (solubilizer Castor oil), 0.37 mg/g; in data set [5] (solubilizer EtOH, filtrate pH 6.1), 0.01 mg/g; in data set [5] (solubilizer Mineral oil) it was 0.00 mg/g; in data set [5] (solubilizer PEG 400, filtrate pH 5.6) it was 0.17 mg/g. The Nintedanib solubility in data set [5] (solubilizer PEG 8000, filtrate pH 6.0) stood at 0.01 mg/g; in data set [5] (solubilizer PG, filtrate pH 6.0), 0.01 mg/g; in data set [5] (solubilizer PLXMR 188, filtrate pH 6.5), 0.01 mg/g; in data set [5] (solubilizer PLXMR 407, filtrate pH 6.3), 0.01 mg/g; in data set [5] (solubilizer polysorbate 20, filtrate pH 6.6), 0.06 mg/g; in data set [5] (solubilizer polysorbate 80, filtrate pH 6.7), 0.25 mg/g.

`CNC(=O)c1cc(Oc2ccc(NC(=O)Nc3ccc(Cl)c(C(F)(F)F)c3)c(F)c2)ccn1` [Regorafenib, regorafenib]: in data set [6] (400 mg micronized regorafenib monohydrate suspended in 20 ml F6H8), the “degradation products in HPLC chromatograms” value was “No unidentified degradation product was observed”. Further, in data set [6] (400 mg micronized regorafenib monohydrate suspended in 20 ml F6H8, HPLC), the “Measured regorafenib concentration, % of theoretical concentration” value was 95.4-99.1%.

The term solubility denotes the concentration that dissolves in the medium under given conditions.
